Measured values reported in patent US11807835B2, “Detergent compositions containing a stabilized enzyme by phosphonates” (ECOLAB USA INC., priority 2016, dated 2023).

Tested on: protease
Assay: Protease activity retention in detergent use solution (4000 ppm, 5 GPG water; peptidyl substrate, glycine buffer pH 9.0)
Format: biochemical
Conditions: for Relative Protease Enzyme Activity: use solution at 120° F.
Protocol: The enzyme activities in the detergents with different phosphonate levels were tested at 4000 ppm in 5 grains per gallon (GPG) water at 120° F. with various time points collected up to 4 hours, after a use solution was generated from the detergent composition. During the tests, the samples at different time points were collected and immediately frozen in an acetone/dry ice bath and stored in −80° C. before the activity of the enzyme was evaluated. For the use of such an assay, t=0 min was the reference point for 100% enzyme activity.
Assays of enzyme activity in formulations (% retention) were conducted to simulate a presoak condition in a beaker using the chemistry, temperature, and pH conditions relevant to manual warewash or presoak applications. Enzyme activity is an indicator of the stability of the enzyme in the detergent, specifically in an aqueous use solution within a sump (which is under conditions of high pH, temperature and dilution).
The analysis by protease assay was conducted as follows. For the assays, a detergent composition was used to generate an aqueous use solution evaluated herein.
Enzyme activity under presoak or manual warewash conditions was traced quantitatively using a standard protease assay. Samples were prepared under bench top conditions, whereby the use solution from a detergent composition or detergent was obtained and maintained at a presoak or manual warewash temperature in a stirring water bath. After the time course for assessing enzyme stability is initiated, aliquots were taken at various time points and flash-frozen. A time=0 sample was prepared for each series by dissolving the detergent formulation at room temperature, mixing thoroughly, and flash freezing. Samples were thawed and diluted as necessary in an assay buffer usually for use in the protease assay. A glycine buffer at pH 9.0 is used here. The assay monitored the direct reaction of the protease on a small, commercially available peptidyl substrate, with liberation of the product providing correlation to the active enzyme content. The product was detected using a plate reader with an appreciable dynamic range (upper absorbance limit of the instrument >3.5). Enzyme activity levels were assessed relative to a calibration curve with average values for replicate tests used to map protease stability under presoak or manual warewash use conditions. Enzyme retention at each time point was calculated as the % enzyme activity relative to the time=0 sample.

O=P(O)(O)CN(CP(=O)(O)O)CP(=O)(O)O [ATMP, Aminotri (methylene phosphonic acid)]
Relative Protease Enzyme Activity (All Ash formula, phosphonate 0.3 wt-%, time 0 min): 100.00% | Relative Protease Enzyme Activity (All Ash formula, phosphonate 0.3 wt-%, time 5 min): 84.60% | Relative Protease Enzyme Activity (All Ash formula, phosphonate 0.3 wt-%, time 10 min): 75.67% | Relative Protease Enzyme Activity (All Ash formula, phosphonate 0.3 wt-%, time 20 min): 53.32% | Relative Protease Enzyme Activity (All Ash formula, phosphonate 0.3 wt-%, time 40 min): 33.78% | Relative Protease Enzyme Activity (All Ash formula, phosphonate 0.3 wt-%, time 60 min): 22.22% | Relative Protease Enzyme Activity (All Ash formula, phosphonate 0.3 wt-%, time 90 min): 15.40% | Relative Protease Enzyme Activity (All Ash formula, phosphonate 0.3 wt-%, time 120 min): 11.13% | Relative Protease Enzyme Activity (All Ash formula, phosphonate 0.3 wt-%, time 150 min): 9.39% | Relative Protease Enzyme Activity (All Ash formula, phosphonate 0.3 wt-%, time 180 min): 7.41% | Relative Protease Enzyme Activity (All Ash formula, phosphonate 0.3 wt-%, time 210 min): 6.17% | Relative Protease Enzyme Activity (All Ash formula, phosphonate 0.3 wt-%, time 240 min): 5.58% | protease stability in all ash formula (all ash formula, versus same composition with PBTC or HEDP without amine(s), FIG. 2D): more stable | Relative Protease Enzyme Activity (base formula, phosphonate 0.3 wt-%, time 0 min): 100.00% | Relative Protease Enzyme Activity (base formula, phosphonate 0.3 wt-%, time 5 min): 94.95% | Relative Protease Enzyme Activity (base formula, phosphonate 0.3 wt-%, time 10 min): 94.68% | Relative Protease Enzyme Activity (base formula, phosphonate 0.3 wt-%, time 20 min): 89.76% | Relative Protease Enzyme Activity (base formula, phosphonate 0.3 wt-%, time 40 min): 87.06% | Relative Protease Enzyme Activity (base formula, phosphonate 0.3 wt-%, time 60 min): 83.93% | Relative Protease Enzyme Activity (base formula, phosphonate 0.3 wt-%, time 90 min): 80.79% | Relative Protease Enzyme Activity (base formula, phosphonate 0.3 wt-%, time 120 min): 76.31% | Relative Protease Enzyme Activity (base formula, phosphonate 0.3 wt-%, time 150 min): 73.96% | Relative Protease Enzyme Activity (base formula, phosphonate 0.3 wt-%, time 180 min): 70.37% | Relative Protease Enzyme Activity (base formula, phosphonate 0.3 wt-%, time 210 min): 65.72% | Relative Protease Enzyme Activity (base formula, phosphonate 0.3 wt-%, time 240 min): 63.75% | Relative Protease Enzyme Activity (base formula, phosphonate 0.6 wt-%, time 0 min): 100.00% | Relative Protease Enzyme Activity (base formula, phosphonate 0.6 wt-%, time 5 min): 91.70% | Relative Protease Enzyme Activity (base formula, phosphonate 0.6 wt-%, time 10 min): 102.58% | Relative Protease Enzyme Activity (base formula, phosphonate 0.6 wt-%, time 20 min): 100.03% | Relative Protease Enzyme Activity (base formula, phosphonate 0.6 wt-%, time 40 min): 97.16% | Relative Protease Enzyme Activity (base formula, phosphonate 0.6 wt-%, time 60 min): 92.31% | Relative Protease Enzyme Activity (base formula, phosphonate 0.6 wt-%, time 90 min): 89.99% | Relative Protease Enzyme Activity (base formula, phosphonate 0.6 wt-%, time 120 min): 91.60% | Relative Protease Enzyme Activity (base formula, phosphonate 0.6 wt-%, time 150 min): 86.21% | Relative Protease Enzyme Activity (base formula, phosphonate 0.6 wt-%, time 180 min): 89.08% | Relative Protease Enzyme Activity (base formula, phosphonate 0.6 wt-%, time 210 min): 89.86% | Relative Protease Enzyme Activity (base formula, phosphonate 0.6 wt-%, time 240 min): 82.33% | Relative Protease Enzyme Activity (base formula, phosphonate at 0.1% elemental phosphorus, time 0 min): 100.00% | Relative Protease Enzyme Activity (base formula, phosphonate at 0.1% elemental phosphorus, time 5 min): 122.55% | Relative Protease Enzyme Activity (base formula, phosphonate at 0.1% elemental phosphorus, time 10 min): 116.65% | Relative Protease Enzyme Activity (base formula, phosphonate at 0.1% elemental phosphorus, time 20 min): 115.14% | Relative Protease Enzyme Activity (base formula, phosphonate at 0.1% elemental phosphorus, time 40 min): 107.73% | Relative Protease Enzyme Activity (base formula, phosphonate at 0.1% elemental phosphorus, time 60 min): 102.70% | Relative Protease Enzyme Activity (base formula, phosphonate at 0.1% elemental phosphorus, time 90 min): 111.18% | Relative Protease Enzyme Activity (base formula, phosphonate at 0.1% elemental phosphorus, time 120 min): 106.19% | Relative Protease Enzyme Activity (base formula, phosphonate at 0.1% elemental phosphorus, time 150 min): 96.80% | Relative Protease Enzyme Activity (base formula, phosphonate at 0.1% elemental phosphorus, time 180 min): 93.35% | Relative Protease Enzyme Activity (base formula, phosphonate at 0.1% elemental phosphorus, time 210 min): 90.51% | Relative Protease Enzyme Activity (base formula, phosphonate at 0.1% elemental phosphorus, time 240 min): 88.60%
